Measured values as given in patent US20240207207A1, “METHODS FOR MITIGATING AND PREVENTING PROTEOSTASIS-BASED INJURIES” (San Diego State University (SDSU) Foundation, dba San Diego …, priority 2018, published 2024).

What was measured:
[1] = test system: ATF6-regulated genes Grp78 and Cat; experiment: ATF6 target gene induction in mouse tissues after intravenous administration (qPCR, IHC, immunoblot); settings: in vivo, mouse heart
Protocol: (§1) Immunoblot analysis. NRVM were lysed and subjected to immunoblot analysis, as previously described^10. In brief, cultures were lysed with VC lysis buffer made from 20 mM Tris-HCl (pH 7.5), 150 mM NaCl, 0.1% SDS, 1% Triton X-100™, protease inhibitor cocktail (Roche Diagnostics, Indianapolis, IN) and phosphatase inhibitor cocktail (Roche Diagnostics). Samples comprising 10 μg of protein were mixed with Laemmli sample buffer, boiled, then subjected to SDS-PAGE followed by transfer onto PVDF membranes for immunoblotting. Full-length Atf6 (p90) was detected with an antibody from SAB Signalway™ Antibody (1:1000, cat #32008, College Park, MD), while active Atf6 (p50) was detected with an antibody from Proteintech™ (1:1000, cat #24169-1-AP, Rosemont, IL). […] The oxidation state of ATF6 in NRVM treated with compound 147 was analyzed by gel-shift essentially as previously described^32. […]
(§2) Malondialdehyde assay. Lipid peroxidation was determined by measuring the levels of malondialdehyde (MDA) using a TBARS assay kit (Cayman Chemical, Ann Arbor, MI) according to the manufacturer's instructions as previously described^10. […]

[2] = test system: IRE1-regulated Erdj4, PERK-regulated Atf4; experiment: qPCR for IRE1 and PERK target genes in mouse hearts; type: in vivo; settings: WT or ATF6 cKO mice, 24 hours after treatment, LV
Protocol: as §1, §2

[3] = test system: hearts of mice that were not subjected to I/R; experiment: 7-day dosing protocols in mice not subjected to I/R: cardiac performance and safety; type: in vivo, mouse
Protocol: In vivo myocardial ischemia/reperfusion. Surgical myocardial I/R was performed as previously described^10. Briefly, mice were anesthetized with 2% isoflurane and a thoracotomy was performed to isolate the heart, after which the left anterior descending coronary artery (LAD) was ligated with a 6-0 Prolene™ suture for 30 minutes, followed by suture removal and either 24 hours or 7 days of reperfusion. Regional ischemia was confirmed by visual inspection of the discoloration of the myocardium distal of the ligation, which is characteristic of impaired blood flow. Animals assigned as shams underwent the thoracotomy surgical procedure, but weren't subjected to LAD ligation. Animals were randomly assigned to trial groups prior to outset of the experiment by a single investigator, while the surgeon and data analyst were blinded to trial assignments. Animals designated to receive either control compound or compound 147 at the time of reperfusion received 2 mg/kg of respective compounds via IV injection 5 minutes prior to release of the ligation. Twenty-four hours after reperfusion, 1% of Evans Blue was injected apically to determine the area at risk (AAR). Hearts were harvested and 1-mm sections of the hearts were stained with 1% 2,3,5-triphenyltetrazolium chloride (TTC) to measure the infarcted area (INF) as previously described^36. The AAR, INF and left ventricle area (LV) from digitized images of heart sections were analyzed using ImageJ software. […] A separate investigator analyzed the AAR, INF, and LV and was blinded to the animal trial assignments. […] Blood was placed in heparin- and EDTA-coated vacutainer (BD Vacutainer) and centrifuged at 3000 rpm for 10 minutes and plasma samples were analyzed for cardiac troponin I with a Mouse cTnI High-Sensitivity ELISA kit (Life Diagnostics, Inc.).
Hepatic triglyceride assay. Hepatic triglyceride assay was performed as previously described^39. Briefly, livers were harvested and 10 mg extracts were homogenized and analyzed for triglyceride content using the EnzyChrom Triglyceride Assay Kit™ (BioAssay Systems).
Transthoracic echocardiography. Transthoracic echocardiography was performed using an ultrasound imaging system (Vevo 2100 System™, Fujifilm VisualSonics, Toronto, Ontario, Canada) as described^40. Diastolic function was determined as previously described^33. Briefly, echocardiography coupled with pulse-wave Doppler was used to visualize transmitral flow velocities and were recorded by imaging the mitral orifice at the point of the mitral leaflets. Waveforms were recorded and analyzed for peak early- and late-diastolic transmitral flow velocities corresponding to E and A waves, respectively.
Malondialdehyde assay. Lipid peroxidation was determined by measuring the levels of malondialdehyde (MDA) using a TBARS assay kit (Cayman Chemical, Ann Arbor, MI) according to the manufacturer's instructions as previously described^10. In vivo experimental compound administration. Control compound and compound 147 were suspended to a final concentration of 0.2 mg/mL in 10% DMSO. Mice were weighed prior to administration of compounds and, subsequently, non-anesthetized 10-week old WT or ATF6 cKO mice were injected with ˜250 μL of stock compounds via the lateral tail vein depending upon body mass to ensure accurate administration of 2 mg/kg. […] Since compound 147 and tunicamycin have similar molecular weights, this dose of compound 147 is near the molar equivalent of the typical dose of tunicamycin. […]

[4] = test system: acute myocardial I/R injury; experiment: acute in vivo myocardial ischemia/reperfusion; design: species or system mouse; settings: acute I/R protocol, 24 h
Protocol: In vivo myocardial ischemia/reperfusion. Surgical myocardial I/R was performed as previously described^10. Briefly, mice were anesthetized with 2% isoflurane and a thoracotomy was performed to isolate the heart, after which the left anterior descending coronary artery (LAD) was ligated with a 6-0 Prolene™ suture for 30 minutes, followed by suture removal and either 24 hours or 7 days of reperfusion. Regional ischemia was confirmed by visual inspection of the discoloration of the myocardium distal of the ligation, which is characteristic of impaired blood flow. Animals assigned as shams underwent the thoracotomy surgical procedure, but weren't subjected to LAD ligation. […] The AAR, INF and left ventricle area (LV) from digitized images of heart sections were analyzed using ImageJ software. […] A separate investigator analyzed the AAR, INF, and LV and was blinded to the animal trial assignments. […] Blood was placed in heparin- and EDTA-coated vacutainer (BD Vacutainer) and centrifuged at 3000 rpm for 10 minutes and plasma samples were analyzed for cardiac troponin I with a Mouse cTnI High-Sensitivity ELISA kit (Life Diagnostics, Inc.).
Transthoracic echocardiography. […] Diastolic function was determined as previously described^33. […] Waveforms were recorded and analyzed for peak early- and late-diastolic transmitral flow velocities corresponding to E and A waves, respectively. […]

[5] = general in vivo properties (brain penetration, tolerance)
Protocol: Malondialdehyde assay. Lipid peroxidation was determined by measuring the levels of malondialdehyde (MDA) using a TBARS assay kit (Cayman Chemical, Ann Arbor, MI) according to the manufacturer's instructions as previously described^10. In vivo experimental compound administration. Control compound and compound 147 were suspended to a final concentration of 0.2 mg/mL in 10% DMSO. Mice were weighed prior to administration of compounds and, subsequently, non-anesthetized 10-week old WT or ATF6 cKO mice were injected with ˜250 μL of stock compounds via the lateral tail vein depending upon body mass to ensure accurate administration of 2 mg/kg. […] Since compound 147 and tunicamycin have similar molecular weights, this dose of compound 147 is near the molar equivalent of the typical dose of tunicamycin. It is relevant to note that for compound 147, a dose of 2 mg/kg is similar to FDA-approved cardiovascular drugs, such as many angiotensin-converting enzyme (ACE) inhibitors, which are used in small-animal models at 2 mg/kg^42.

[6] = Trials 1-3, 7 days, mice without I/R

Which “duration of ATF6-target gene induction” value [1] does the source give for `Cc1ccc(O)c(NC(=O)CCc2ccccc2)c1` [compound 147] here?
Its value is about 3 days.

And the “expression levels of Erdj4 or Atf4 in hearts” value [2]?
Its value is “no effect”.

What about the “expression of pathology-associated genes Nppa, Nppb, Col1a1 or Myh7” value [3, 6] of the same compound?
The value was “None of the dosing protocols resulted in”.

What about the “increased plasma cTnI” value [3, 6] of the same compound?
The value was “None of the dosing protocols resulted in”.

And the “pathological cardiac hypertrophy (heart weight to body weight)” value [3, 6]?
Its value is “None of the dosing protocols resulted in”.

What about the “liver or kidney deficits (steatosis by hepatic triglyceride accumulation, glomerular filtration rate by creatinine clearance)” value ([3]; any of the trials, data not shown) of the same compound?
Its value is “no apparent deficits were observed”.

What about the cardiotoxicity ([3]; over the course of 7 days) of the same compound?
Its cardiotoxicity is “does not induce cardiotoxicity”.

And the “cardiac performance, chamber size, or pathological hypertrophy by echocardiography” value [4]?
Its value is “no effect”.

What about the “blood brain barrier crossing” value [5] of the same compound?
Its value is “has the capacity to cross the blood brain barrier”.

And the “toxicity or deleterious off-target effects” value [5]?
Its value is “does not exhibit any apparent toxicity or deleterious off-target effects”.
